Laboratory results: the NIST ThermoML archive (doi:10.1016/j.fluid.2017.06.019)

Settings: Coaxial cylinder method

CCC [propane]
thermal conductivity [W/m/K]
Settings	365.72 K	366.45 K
3595 kPa, Gas	–	0.03694
3610 kPa, Gas	–	0.0371
3880 kPa, Gas	–	0.04193
3882 kPa, Gas	–	0.04198
3908 kPa, Gas	–	0.04282
3915 kPa, Gas	–	0.04316
3920 kPa, Gas	–	0.04339
3925 kPa, Gas	–	0.04359
3930 kPa, Gas	–	0.04383
3935 kPa, Gas	–	0.04406
3937 kPa, Gas	–	0.04421
3949 kPa, Gas	–	0.04486
3950 kPa, Gas	–	0.04487
3951 kPa, Gas	–	0.04497
3952 kPa, Gas	–	0.04502
3953 kPa, Gas	–	0.04507
3954 kPa, Gas	–	0.04513
3955 kPa, Gas	–	0.04847
3956 kPa, Gas	–	0.0498
3957 kPa, Gas	–	0.0512
3958 kPa, Gas	–	0.05294
3959 kPa, Gas	–	0.05452
3960 kPa, Gas	–	0.05651
3961 kPa, Gas	–	0.05848
3962 kPa, Gas	–	0.06058
3963 kPa, Gas	–	0.06307
3964 kPa, Gas	–	0.06573
3965 kPa, Gas	–	0.06816
3966 kPa, Gas	–	0.07114
3967 kPa, Gas	–	0.07411
3968 kPa, Gas	–	0.07748
3969 kPa, Gas	–	0.08195
3970 kPa, Gas	–	0.08706
3971 kPa, Gas	–	0.09339
3972 kPa, Gas	–	0.09783
3973 kPa, Gas	–	0.1017
3974 kPa, Gas	–	0.108
3975 kPa, Gas	–	0.114
3976 kPa, Gas	–	0.1185
3977 kPa, Gas	–	0.1239
3978 kPa, Gas	–	0.1288
3978 kPa, Liquid	0.08613	–
3979 kPa, Gas	–	0.1341
3979 kPa, Liquid	0.08495	–
3980 kPa, Gas	–	0.1393
3980 kPa, Liquid	0.08381	–
3981 kPa, Gas	–	0.1449
3982 kPa, Gas	–	0.1502
3983 kPa, Gas	–	0.1559
3984 kPa, Gas	–	0.1614
3985 kPa, Gas	–	0.1661
3985 kPa, Liquid	0.07882	–
3986 kPa, Gas	–	0.1732
3987 kPa, Gas	–	0.1794
3988 kPa, Gas	–	0.1853
3989 kPa, Gas	–	0.1916
3990 kPa, Gas	–	0.1977
3990 kPa, Liquid	0.07478	–
3991 kPa, Gas	–	0.2045
3992 kPa, Gas	–	0.2108
3993 kPa, Gas	–	0.2174
3994 kPa, Gas	–	0.224
3995 kPa, Gas	–	0.2309
3995 kPa, Liquid	0.07164	–
3996 kPa, Gas	–	0.2389
3997 kPa, Liquid	–	0.2535
3998 kPa, Liquid	–	0.2389
3999 kPa, Liquid	–	0.2261
4000 kPa, Liquid	0.06921	0.2153
4001 kPa, Liquid	–	0.2051
4002 kPa, Liquid	–	0.196
4003 kPa, Liquid	–	0.1879
4004 kPa, Liquid	–	0.1801
4005 kPa, Liquid	–	0.1734
4006 kPa, Liquid	–	0.1669
4007 kPa, Liquid	–	0.1612
4008 kPa, Liquid	–	0.1563
4009 kPa, Liquid	–	0.1513
4010 kPa, Liquid	0.066	0.1467
4011 kPa, Liquid	–	0.1425
4012 kPa, Liquid	–	0.1387
4014 kPa, Liquid	0.06521	–
4020 kPa, Liquid	0.06438	–
4025 kPa, Liquid	0.06418	–
4030 kPa, Liquid	0.06394	–
4035 kPa, Liquid	0.06394	–
4040 kPa, Liquid	0.06389	–
4045 kPa, Liquid	0.06389	–
4050 kPa, Liquid	0.06389	–
4055 kPa, Liquid	0.06385	–
4060 kPa, Liquid	0.06385	–
4080 kPa, Liquid	0.06377	–
4100 kPa, Liquid	0.06375	–
4120 kPa, Liquid	0.06375	–
4140 kPa, Liquid	0.06377	–
4160 kPa, Liquid	0.06377	–
4180 kPa, Liquid	0.06377	–
4200 kPa, Liquid	0.06381	–
4250 kPa, Liquid	0.06392	–
4275 kPa, Liquid	0.06396	–
4350 kPa, Liquid	0.06412	–
4400 kPa, Liquid	0.06428	–
4450 kPa, Liquid	0.06442	–
4500 kPa, Liquid	0.06459	–
4560 kPa, Liquid	0.06484	–
4580 kPa, Liquid	0.0649	–
4670 kPa, Liquid	0.06519	–
4690 kPa, Liquid	0.06519	–
